The values that follow come from patent US20250313535A1, “ALPHA 4 BETA 7 INTEGRIN MODULATORS AND USES THEREOF” (DICE MOLECULES SV, INC., priority 2022, published 2025).

The target of experiment [1] is α4β7 integrin (Homo sapiens (Human), UniProt P13612+P26010). Briefly: Integrin Adhesion Assay: Protocol 1 (MAdCAM-coated plate, RPMI-8866 cells, CellTiter GLO readout). It is filed as cell-based. The protocol:
α4β7 and α4β1 inhibition was evaluated in vitro using at least one of the following procedures:
Integrin Adhesion Assay: Protocol 1
MAdCAM (R&D Systems, 0.1 ug) was diluted in 50 μL PBS, added to each well of an opaque ELISA plate (Thermo), and incubated overnight at 4° C. Coated plates were washed once with PBS and then blocked with 200 μL of assay buffer (10 mM HEPES, 150 mM NaCl, 1 mM MnCl2, 0.1 mM CaCl2), 1% BSA) for 1 hour at 37° C. and 5% CO2. After incubation, buffer was aspirated from the plates and 50 μL of fresh assay buffer is added. Compounds were added by a compouns dispenser (Tecan) and DMSO concentration was normalized to 1% across each plate. 50 μL of RPMI-8866 cells (2×10^6 per mL) were added to each well and the plates were incubated for 1 hour at 37° C. and 5% CO2. After incubation, plates were allowed to cool to RT for 10 minutes before being washed four times in assay buffer by an automated plate washer (BioTek). After washing, 100 μL of a 1:1 mixture of assay buffer and CellTiter GLO 2.0 reagent (Promega) were added to each well. Plates were mixed for 2 minutes at 1000 rpm and then allowed to incubate an additional 10 minutes before reading out luminescence on a Tecan Spark plate reader. Raw data was converted to percent inhibition based on DMSO only and control compound wells, and curves were analyzed by 4-parameter fit within Dotmatics software.
(In general: ATP-based viability assays read luminescence as a measure of living cells.)

In experiment [2] the target is α4β1 integrin (Homo sapiens (Human), UniProt P05556+P13612). Briefly: Integrin Adhesion Assay: Protocol 5 (VCAM-coated plate, RPMI-8866 cells with stable LOF mutation of the ITGB7 gene). The note with it: RPMI-8866 cells with stable LOF mutation of the ITGB7 gene; read-out: Mean IC50 α4β1 KO^b. Type of experiment: cell-based. The essentials:
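RPMI-8866 B cells with CRISPR/Cas9 ITGB7 knockout (clonal, verified by flow cytometry) adhered to VCAM-coated wells for 1 h at 37° C in HEPES/NaCl buffer with 1 mM MnCl2, 0.1 mM CaCl2, 1% BSA, 1% DMSO. Bound cells quantified by CellTiter-Glo luminescence after washing; % inhibition versus DMSO and control, 4-parameter fit.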

Structures are written as SMILES. Bounds are passed on as bounds.

α4β1 integrin, sequence (P13612 34-1032): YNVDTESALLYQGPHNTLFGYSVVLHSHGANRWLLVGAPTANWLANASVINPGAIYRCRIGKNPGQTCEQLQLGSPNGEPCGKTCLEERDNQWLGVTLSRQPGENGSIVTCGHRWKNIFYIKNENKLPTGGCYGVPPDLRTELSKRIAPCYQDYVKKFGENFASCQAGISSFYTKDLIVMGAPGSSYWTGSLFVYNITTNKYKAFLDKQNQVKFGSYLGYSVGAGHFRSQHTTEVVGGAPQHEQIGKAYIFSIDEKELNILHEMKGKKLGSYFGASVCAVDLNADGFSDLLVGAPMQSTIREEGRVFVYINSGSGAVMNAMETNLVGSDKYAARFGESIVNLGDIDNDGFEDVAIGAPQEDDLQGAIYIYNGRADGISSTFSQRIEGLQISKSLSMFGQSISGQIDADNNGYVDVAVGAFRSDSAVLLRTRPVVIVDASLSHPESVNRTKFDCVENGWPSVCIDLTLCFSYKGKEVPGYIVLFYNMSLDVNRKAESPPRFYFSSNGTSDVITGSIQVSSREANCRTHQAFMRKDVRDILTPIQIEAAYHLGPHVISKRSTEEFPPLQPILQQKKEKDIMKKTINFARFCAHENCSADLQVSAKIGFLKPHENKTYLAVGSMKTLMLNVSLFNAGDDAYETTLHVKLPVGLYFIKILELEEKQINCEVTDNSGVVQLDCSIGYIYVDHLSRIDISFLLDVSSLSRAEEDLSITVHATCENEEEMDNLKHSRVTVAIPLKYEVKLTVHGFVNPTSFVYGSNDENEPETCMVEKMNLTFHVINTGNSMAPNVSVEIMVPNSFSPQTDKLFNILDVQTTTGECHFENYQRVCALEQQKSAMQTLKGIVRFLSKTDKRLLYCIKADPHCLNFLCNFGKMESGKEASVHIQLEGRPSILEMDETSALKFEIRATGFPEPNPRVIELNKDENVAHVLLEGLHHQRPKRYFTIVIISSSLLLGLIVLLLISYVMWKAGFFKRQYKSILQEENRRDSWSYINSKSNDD
α4β1 integrin, sequence (P05556 21-798): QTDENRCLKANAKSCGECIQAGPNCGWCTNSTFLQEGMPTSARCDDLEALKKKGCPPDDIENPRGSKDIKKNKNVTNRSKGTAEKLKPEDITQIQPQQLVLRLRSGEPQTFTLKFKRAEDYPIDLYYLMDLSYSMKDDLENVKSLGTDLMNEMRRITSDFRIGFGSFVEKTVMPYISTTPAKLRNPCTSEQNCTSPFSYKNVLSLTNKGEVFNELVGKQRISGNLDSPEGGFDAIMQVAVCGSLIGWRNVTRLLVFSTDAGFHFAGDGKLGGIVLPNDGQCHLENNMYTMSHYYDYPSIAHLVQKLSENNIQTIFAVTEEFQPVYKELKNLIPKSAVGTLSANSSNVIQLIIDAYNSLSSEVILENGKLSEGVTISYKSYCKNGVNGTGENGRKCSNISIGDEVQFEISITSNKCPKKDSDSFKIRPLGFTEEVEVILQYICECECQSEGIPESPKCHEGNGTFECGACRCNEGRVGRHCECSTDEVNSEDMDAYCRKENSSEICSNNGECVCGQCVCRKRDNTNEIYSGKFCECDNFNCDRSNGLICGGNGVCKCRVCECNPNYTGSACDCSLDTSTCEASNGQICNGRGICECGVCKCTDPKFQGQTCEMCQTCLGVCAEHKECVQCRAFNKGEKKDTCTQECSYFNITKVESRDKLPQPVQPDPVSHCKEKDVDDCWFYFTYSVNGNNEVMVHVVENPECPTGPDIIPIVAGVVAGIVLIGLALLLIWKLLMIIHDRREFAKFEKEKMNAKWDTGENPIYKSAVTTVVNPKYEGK
α4β7 integrin, sequence (P13612 34-1032): as the sequence (P13612 34-1032) above
α4β7 integrin, sequence (P26010 20-798): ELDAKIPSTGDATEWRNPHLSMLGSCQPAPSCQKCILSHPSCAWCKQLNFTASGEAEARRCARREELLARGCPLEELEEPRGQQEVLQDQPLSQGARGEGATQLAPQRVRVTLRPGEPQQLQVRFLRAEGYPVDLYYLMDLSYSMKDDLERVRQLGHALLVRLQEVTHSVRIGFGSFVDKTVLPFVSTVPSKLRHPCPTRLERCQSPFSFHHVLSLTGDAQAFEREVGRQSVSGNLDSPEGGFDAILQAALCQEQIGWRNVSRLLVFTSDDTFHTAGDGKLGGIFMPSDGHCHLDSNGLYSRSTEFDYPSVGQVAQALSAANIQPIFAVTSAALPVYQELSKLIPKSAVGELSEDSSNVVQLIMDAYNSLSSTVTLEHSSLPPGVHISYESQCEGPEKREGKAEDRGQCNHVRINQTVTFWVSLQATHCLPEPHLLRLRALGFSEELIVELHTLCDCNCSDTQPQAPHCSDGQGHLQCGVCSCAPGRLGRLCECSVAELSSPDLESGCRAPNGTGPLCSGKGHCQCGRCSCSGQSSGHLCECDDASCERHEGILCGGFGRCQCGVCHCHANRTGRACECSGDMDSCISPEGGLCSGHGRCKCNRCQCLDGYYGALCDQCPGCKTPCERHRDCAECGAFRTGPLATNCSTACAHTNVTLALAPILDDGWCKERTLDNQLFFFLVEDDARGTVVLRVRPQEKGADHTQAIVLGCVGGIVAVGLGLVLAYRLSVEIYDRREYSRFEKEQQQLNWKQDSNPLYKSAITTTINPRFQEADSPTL

Usually IC50 stands for the concentration needed to halve the response being measured. With `CN(C)c1ccc2c(-c3cccc4c(C[C@H](NC(=O)c5c(F)cc(N6CCOC[C@@H]6C(F)(F)F)cc5CN5CCOCC5)C(=O)O)cccc34)nccc2c1` [Compound 299], the figures for the IC50 in experiment [1] and in experiment [2] were under 10 nM and over 1000 nM, respectively.

Regarding `CN(C)C1CCN(Cc2cc(N3CCOC[C@@H]3C(F)(F)F)cc(F)c2C(=O)N[C@@H](Cc2cccc3c(-c4cccc5ccncc45)cccc23)C(=O)O)CC1` [Compound 300], the 50% inhibitory concentration (IC50) in experiment [1] was under 10 nM; in experiment [2], over 1000 nM.

Turning to `O=C(N[C@@H](Cc1cccc2c(-c3cccc4ccncc34)cccc12)C(=O)O)c1c(F)cc(N2CCOC[C@@H]2C(F)(F)F)cc1CN1CCC(F)(F)CC1` [Compound 301], the IC50 in experiment [1] was 10 to 100 nM; in experiment [2], over 1000 nM.

In the case of `CN(C)c1ccc2c(c1)c(C(F)(F)F)c(-c1cccc3c(C[C@H](NC(=O)c4c(F)cc(N5CCOC[C@@H]5C(F)(F)F)cc4F)C(=O)O)cccc13)c(=O)n2C` [Compound 302], the IC50 was 10 to 100 nM in experiment [1] and over 1000 nM in experiment [2].

Take `Cc1n[nH]c(C)c1-c1cc(F)c(C(=O)N[C@@H](Cc2cccc3c(-c4c(C(F)(F)F)c5ccccc5n(C)c4=O)cccc23)C(=O)O)c(F)c1` [Compound 308]: the half-inhibitory concentration (IC50) in experiment [1] is 10 to 100 nM; in experiment [2] it was over 1000 nM.

Turning to `Cc1n[nH]c(C)c1-c1ccc(F)c(C(=O)N[C@@H](Cc2cccc3c(-c4c(C(F)(F)F)c5ccccc5n(C)c4=O)cccc23)C(=O)O)c1F` [Compound 309], the IC50 in experiment [1] was 10 to 100 nM; in experiment [2], over 1000 nM.

With `Cn1c(=O)c(-c2cccc3c(C[C@H](NC(=O)c4c(F)ccc(-c5cccnc5)c4F)C(=O)O)cccc23)c(C(F)(F)F)c2ccccc21` [Compound 312], the 50% inhibitory concentration (IC50) in experiment [1] is 10 to 100 nM; in experiment [2], over 1000 nM.

As to `Cn1c(=O)c(-c2cccc3c(C[C@H](NC(=O)c4c(F)ccc(-c5ccccn5)c4F)C(=O)O)cccc23)c(C(F)(F)F)c2ccccc21` [Compound 313], the figures for the half-maximal inhibitory concentration (IC50) in experiment [1] and in experiment [2] were 10 to 100 nM and over 1000 nM, respectively.

Turning to `Cc1cncc(C)c1-c1ccc(F)c(C(=O)N[C@@H](Cc2cccc3c(-c4c(C(F)(F)F)c5ccccc5n(C)c4=O)cccc23)C(=O)O)c1F` [Compound 314], the IC50 was 10 to 100 nM in experiment [1] and over 1000 nM in experiment [2].

Regarding `Cc1ccnc(C)c1-c1ccc(F)c(C(=O)N[C@@H](Cc2cccc3c(-c4c(C(F)(F)F)c5ccccc5n(C)c4=O)cccc23)C(=O)O)c1F` [Compound 315], the values for the half-maximal inhibitory concentration (IC50) in experiment [1] and in experiment [2] were 10 to 100 nM and over 1000 nM, respectively.

`Cn1c(=O)c(-c2cccc3c(C[C@H](NC(=O)c4c(F)cc(N5CCOC[C@@H]5C(F)(F)F)cc4F)C(=O)O)cccc23)c(C(F)(F)F)c2ccccc21` [Compound 317]: the half-maximal inhibitory concentration (IC50) in experiment [1] was 10 to 100 nM; in experiment [2], over 1000 nM.

`Cn1c(=O)c(-c2cccc3c(C[C@H](NC(=O)c4c(F)cc(N5CCCC[C@@H]5C(F)(F)F)cc4F)C(=O)O)cccc23)c(C(F)(F)F)c2ccccc21` [Compound 318]: the IC50 is 100 to 1000 nM in experiment [1] and over 1000 nM in experiment [2].

For the molecule `CC[C@@H](Nc1cc(F)c(C(=O)N[C@@H](Cc2cccc3c(-c4c(C(F)(F)F)c5ccccc5n(C)c4=O)cccc23)C(=O)O)c(F)c1)C(F)(F)F` [Compound 321], the results for the IC50 in experiment [1] and in experiment [2] were 10 to 100 nM and over 1000 nM, respectively.

As for `Cn1c(=O)c(-c2cccc3c(C[C@H](NC(=O)c4c(F)cc5cnn(CC(F)(F)F)c5c4F)C(=O)O)cccc23)c(C(F)(F)F)c2ccccc21` [Compound 322], the IC50 in experiment [1] is 10 to 100 nM; in experiment [2], 100 to 1000 nM.

For the molecule `Cn1c(=O)c(-c2cccc3c(C[C@H](NC(=O)c4c(F)cc(N(CC(F)(F)F)CC(F)(F)F)cc4F)C(=O)O)cccc23)c(C(F)(F)F)c2ccccc21` [Compound 324], the values for the IC50 in experiment [1] and in experiment [2] were 10 to 100 nM and over 1000 nM, respectively.

Turning to `Cn1c(=O)c(-c2cccc3c(C[C@H](NC(=O)c4c(F)cc(C(F)(F)F)cc4F)C(=O)O)cccc23)c(C(F)(F)F)c2ccccc21` [Compound 325], the 50% inhibitory concentration (IC50) in experiment [1] and in experiment [2] was over 1000 nM throughout.

On to `Cc1[nH]c2ccccc2c1-c1cc(F)c(C(=O)N[C@@H](Cc2cccc3c(-c4c(C(F)(F)F)c5ccccc5n(C)c4=O)cccc23)C(=O)O)c(F)c1` [Compound 327], for which the IC50 is 100 to 1000 nM in experiment [1] and over 1000 nM in experiment [2].

In the case of `Cc1cccc(C)c1-c1nc(C)c(C(=O)N[C@@H](Cc2cccc3c(-c4c(C(F)(F)F)c5ccccc5n(C)c4=O)cccc23)C(=O)O)n1C` [Compound 330], the figures for the IC50 in experiment [1] and in experiment [2] were 10 to 100 nM and over 1000 nM, respectively.

Consider `Cn1c(=O)c(-c2cccc3c(C[C@H](NC(=O)c4c(F)cc(N5CC(C)(C)OC(C)(C)C5)cc4F)C(=O)O)cccc23)c(C(F)(F)F)c2ccccc21` [Compound 331], for which the figures for the IC50 in experiment [1] and in experiment [2] were 10 to 100 nM and over 1000 nM, respectively.

On to `Cn1c(=O)c(-c2cccc3c(C[C@H](NC(=O)[C@]4(C)CC[C@@H](N5CCOC[C@@H]5C(F)(F)F)CC4)C(=O)O)cccc23)c(C(F)(F)F)c2ccccc21` [Compound 346], for which the half-maximal inhibitory concentration (IC50) is 10 to 100 nM in experiment [1] and over 1000 nM in experiment [2].

Turning to `CN1CCN(c2cc(F)c(C(=O)N[C@@H](Cc3cccc4c(-c5c(C(F)(F)F)c6ccccc6n(C)c5=O)cccc34)C(=O)O)c(F)c2)CC1` [Compound 350], the IC50 in experiment [1] is 10 to 100 nM; in experiment [2], over 1000 nM.

Regarding `Cn1c(=O)c(-c2cccc3c(C[C@H](NC(=O)c4c(F)cccc4CN4CCCC4)C(=O)O)cccc23)c(C(F)(F)F)c2ccccc21` [Compound 351], the IC50 in experiment [1] was under 10 nM; in experiment [2], over 1000 nM.

Take `CN1CCN(Cc2cccc(F)c2C(=O)N[C@@H](Cc2cccc3c(-c4c(C(F)(F)F)c5ccccc5n(C)c4=O)cccc23)C(=O)O)CC1` [Compound 353]: the figures for the 50% inhibitory concentration (IC50) in experiment [1] and in experiment [2] were 10 to 100 nM and over 1000 nM, respectively.

With `O=C(N[C@@H](Cc1cccc2c(-c3cccc4ccncc34)cccc12)C(=O)O)c1c(F)cccc1CN1CCCC1` [Compound 356], the figures for the IC50 in experiment [1] and in experiment [2] were 10 to 100 nM and over 1000 nM, respectively.

As for `CN(C)Cc1cccc(F)c1C(=O)N[C@@H](Cc1cccc2c(-c3cccc4ccncc34)cccc12)C(=O)O` [Compound 357], the results for the IC50 in experiment [1] and in experiment [2] were 10 to 100 nM and over 1000 nM, respectively.

Take `O=C(N[C@@H](Cc1cccc2c(-c3cccc4ccncc34)cccc12)C(=O)O)c1c(F)cccc1CN1CCC(F)(F)CC1` [Compound 358]: the IC50 in experiment [1] was 10 to 100 nM; in experiment [2], over 1000 nM.

With `Cn1c(=O)c(-c2cccc3c(C[C@H](NC(=O)c4c(F)cc(N5CCOC[C@@H]5C(F)(F)F)cc4CN4CCCC4)C(=O)O)cccc23)c(C(F)(F)F)c2ccccc21` [Compound 359], the IC50 in experiment [1] was under 10 nM; in experiment [2], over 1000 nM.

On to `CN1CCN(Cc2cc(N3CCOC[C@@H]3C(F)(F)F)cc(F)c2C(=O)N[C@@H](Cc2cccc3c(-c4c(C(F)(F)F)c5ccccc5n(C)c4=O)cccc23)C(=O)O)CC1` [Compound 360], for which the IC50 in experiment [1] is under 10 nM; in experiment [2], over 1000 nM.

On to `Cc1cc(N2CCOC[C@@H]2C(F)(F)F)cc(F)c1C(=O)N[C@@H](Cc1cccc2c(-c3c(C(F)(F)F)c4ccccc4n(C)c3=O)cccc12)C(=O)O` [Compound 361], for which the figures for the concentration for half-maximal inhibition (IC50) in experiment [1] and in experiment [2] were 10 to 100 nM and over 1000 nM, respectively.

As to `Cn1c(=O)c(-c2cccc3c(C[C@H](NC(=O)C4(C)CCN(C5CCOCC5)CC4)C(=O)O)cccc23)c(C(F)(F)F)c2ccccc21` [Compound 362], the IC50 in experiment [1] is 10 to 100 nM; in experiment [2] it was over 1000 nM.
